Molecular target: T1, Dihydrofolate reductase (Escherichia coli) (UniProt P0ABQ4)
T1 sequence (whole entry): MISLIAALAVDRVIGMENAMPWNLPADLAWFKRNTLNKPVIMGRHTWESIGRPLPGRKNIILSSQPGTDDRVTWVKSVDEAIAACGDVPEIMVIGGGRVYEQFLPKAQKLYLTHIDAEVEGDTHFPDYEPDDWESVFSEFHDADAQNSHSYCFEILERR
Description: Inhibition of Escherichia coli dihydrofolate reductase

Row | log(1/I50) | Compound
1 | 5.96 | COc1ccc(Cc2cnc(N)nc2N)cc1
2 | 7.4 | COc1cc(Cc2cnc(N)nc2N)cc(Cl)c1OC
3 | 5.64 | Cc1ccc(Cc2cnc(N)nc2N)cc1
4 | 5.68 | Nc1ncc(Cc2ccc(Cl)cc2)c(N)n1
5 | 6.31 | COc1cccc(Cc2cnc(N)nc2N)c1
6 | 5.74 | Nc1ncc(Cc2ccc(O)cc2)c(N)n1
7 | 7 | COc1ccc(Cc2cnc(N)nc2N)cc1OC

Molecular target: T2, Dihydrofolate reductase (Rattus norvegicus) (UniProt Q920D2)
T2 sequence (whole entry): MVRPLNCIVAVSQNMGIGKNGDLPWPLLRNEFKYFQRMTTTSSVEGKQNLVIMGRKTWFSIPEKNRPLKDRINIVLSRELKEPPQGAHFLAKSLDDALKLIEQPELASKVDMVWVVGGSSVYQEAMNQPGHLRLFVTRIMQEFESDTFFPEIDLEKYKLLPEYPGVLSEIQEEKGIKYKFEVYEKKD
Description: Inhibition of rat liver dihydrofolate reductase

Row | log(1/I50) | Compound
8 | 4.8 | Nc1ncc(Cc2ccccc2)c(N)n1

System: Plasmodium berghei
Assay: Antimalarial activity against Plasmodium berghei infected in po dosed mouse assessed as suppression of parasitemia administered for 6 days
Assay type: functional

Row | Compound | log(1/SD90)
9 | Nc1nc(N)c2cc(OCc3ccccc3)ccc2n1 | 3.18
10 | Nc1nc(N)c2cc(Oc3cc(Cl)c(Cl)cc3Cl)ccc2n1 | 4.57
11 | Nc1nc(N)c2cc(OCc3ccc(Cl)cc3)ccc2n1 | 4.06
12 | Nc1nc(N)c2cc(Oc3cc(Cl)cc(Cl)c3)ccc2n1 | 4.11

System: Plasmodium berghei
Assay: Antimalarial activity against Plasmodium berghei infected in po dosed mouse assessed as suppression of parasitemia administered for 4 days
Assay type: functional

Row | Compound | log(1/SD90)
13 | Nc1nc(N)c2cc(N3CCc4ccccc4C3)ccc2n1 | 4.8
14 | Nc1nc(N)c2cc(N3CCCC3c3ccccc3)ccc2n1 (centres undefined) | 5.94
15 | Cc1ccc(C)n1-c1cc(-n2c(C)ccc2C)c2nc(N)nc(N)c2c1 | 4.34
16 | Nc1nc(N)c2cc(N3CCC(c4ccccc4)CC3)ccc2n1 | 4.3
17 | Nc1nc(N)c2cc(N(Cc3ccc(Cl)c(Cl)c3)N=O)ccc2n1 | 6.13

System: Proteus vulgaris
Assay: Inhibition of Proteus vulgaris dihydrofolate reductase

Row | Activity [×10⁻⁸ M] | Compound
18 | 0.5 | COc1cc(Cc2cnc(N)nc2N)cc(OC)c1OC
19 | 10000 | CCCCc1ccc(N2C(N)=NC(N)=NC2(C)C)cc1

Source: ChEMBL document CHEMBL3272349, “Quantitative structure-activity relationships of antimalarial and dihydrofolate reductase inhibition by quinazolines and 5-substituted benzyl-2,4-diaminopyrimidines” (J Med Chem, 1977)
